This note sets out measurements from patent US20240117313A1, “METHOD FOR PRODUCING THREE-DIMENSIONAL TISSUE BODY AND METHOD FOR PROMOTING DIFFERENTIATION OF ADIPOSE-DERIVED STEM CELLS” (TOPPAN INC., priority 2021, published 2024).

Like-named read-outs stand apart in the source and are kept apart here. Bounds are passed on as bounds.

Test [1] has as its system subcutaneous fat-derived stein cells. Conditions: day 7 of differentiation. The procedure:
(§1) Onto a 96-well plate (manufactured by IWAKI), 2 μL of FBS-free DMEM containing 1.2% by weight (final concentration) of the defibered collagen component, 6 mg/mL (final concentration) fibrinogen, 3 U/mL (final concentration) thrombin, and 5×10^6 cells/mL of subcutaneous fat-derived stein cells was seeded and incubated for 15 minutes, 200 μL of DMEM culture medium was then added, and culture was performed for 48 hours.
The three-dimensional tissue constructs obtained were each subjected to fat staining with Nile red, and Hoechst staining for staining nuclei. In the same manner as in Production Example 1, fluorescence intensity for fat staining (Nile red) relative to fluorescence intensity for nucleic staining (Hoechst) was calculated, and increase rates of fluorescence intensity with reference to that of the three-dimensional tissue constructs cultured in DMEM culture medium containing no ALK5 inhibitor were calculated (three samples were used for each conditions).

Test [2] has the same test system. Conditions: for adipogenesis (fat staining with Nile red): FIG. 5. Here is the method:
as §1

Turning to `Cc1cccc(-c2n[nH]cc2-c2ccc3ncccc3n2)n1` [ALK5 inhibitor, 2-[3-(6-methyl-2-pyridinyl)-1H-pyrazol-4-yl]-1,5-naphthyridine], in test [1] (5 μM or more of the ALK5 inhibitor in DMEM with seven fatty acids each 50 μM, vs no ALK5 inhibitor, FIG. 4), the “increase in fluorescence intensity (Nile red relative to Hoechst)” value was no less than 3 fold. The “adipogenesis (fat staining with Nile red)” value is on record as “had proceeded more” in test [1] (ALK5 inhibitor 1, 5 or 10 μM in DMEM with seven fatty acids each 50 μM, vs medium containing no ALK5 inhibitor, FIG. 3); “had proceeded” in test [2] (ALK5 inhibitor 5 μM with seven fatty acids each in 50 IIM, day 3, day 7 and day 14 of differentiation); “had more proceeded” in test [2] (ALK5 inhibitor 5 μM, day 7 of culture and day 14 of culture (in particular)). In addition, the “differentiation of fat-derived stein cells into mature adipocytes” value in test [1] (addition of the ALK5 inhibitor to DMEM with seven fatty acids each 50 μM) was “promoted”. In addition, in test [2] (ALK5 inhibitor 5 μM, FIG. 6), the “difference in increase rates of fluorescence intensity between day 7 and day 14 of culture” value is reported as “No large difference”. The “increase in fluorescence intensity vs medium containing no ALK5 inhibitor” value in test [2] (ALK5 inhibitor 5 μM, day 7 of culture and day 14 of culture, FIG. 6) was “significant”.
